This note sets out measurements from patent US10364263B2, “Cyclic phosphates and cyclic phosphoramidates for the treatment of neurologic disorders” (Retrophin, Inc., priority 2015, dated 2019).

Each structure is given as a SMILES string.

The nature of series [1]: Stability in human plasma. It counts as in vitro ADME. Conditions: human, plasma, 37° C. On the procedure:
(§1) Compounds and positive control samples were dissolved in 100% DMSO at 3 mM. To investigate the stability of the test compounds in plasma, samples were made by diluting test compounds into plasma from the stock solutions to obtain a test compound concentration of 3 μM (0.1% DMSO). Before addition of a test compound, 990 μl of plasma were preincubated at 37° C. for 5 min in eppendorf. After addition of a test compound, 70 μl for each time point were transferred to a 96-deepwell plate, previously warmed at 37° C. in a DUBNOFF water bath. Each compound was tested at five time points, in duplicate (10, 20, 30, 40 and 60 min). At each time point, an aliquot of 50 μl was taken and transferred to a new 96-deepwell plate, and the reaction was stopped with 200 μl of 100% acetonitrile containing 0.1% formic acid and the appropriate internal standard. Then samples were centrifuged at 1100×g for 30 min at +4° C. and supernatants were transferred to a new 96-deepwell plate. Samples were evaporated under N2 and reconstituted in H2O/ACN 0.1% Formic Acid (98:2). Analysis was performed without a calibration curve (Acquity UPLC-Waters; SciexAPI4000). Time 0 was obtained by adding acetonitrile before addition of the test compound.

Series [2] concerns PANK2 silenced human neuroblastoma IMR32 cells (PANK2−/−). In words: Coenzyme A assay in PANK2 silenced cells (LC-MS quantification of free CoA). Conditions: compound added twice (24 h + 24 h), relative to 0.1% DMSO controls. The series is classed as cell-based. The essentials:
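PANK2 shRNA-silenced IMR32 neuroblastoma cells were treated with compound (0.1% DMSO) for 24 h, then re-dosed with fresh compound for a further 24 h at 37 °C. TFA extracts of 1×10^6 cells were assayed for free CoA by LC-MS/MS (MRM 768.1→261.6/136.1). Results are given as fold change versus DMSO controls.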

Series [3] in a line: Stability in mouse plasma. The series is classed as in vitro ADME. Conditions: mouse, plasma; for t1/2, Mouse Plasma, Diastereoisomer B: 3 µM. Here is the method:
as §1

Where [4] appears, read: Diastereoisomer A (upfield shift in 31P NMR), read-out: t1/2, Human Plasma, Diastereoisomer A (converted).
Setting [5] is: Diastereoisomer B, read-out: t1/2, Human Plasma, Diastereoisomer B (converted).

Turning to `COC(=O)CCNC(=O)[C@@H]1OP(=O)(OCOC(=O)CN2CCN(C(C)=O)CC2)OCC1(C)C` (stereo partly drawn) [compound 80, methyl 3-((4R)-2-((2-(4-acetylpiperazin-1-yl)acetoxy)methoxy)-5,5-dimethyl-2-oxido-1,3,2-dioxaphosphinane-4-carboxamido)propanoate], the half-life at 3 µM in series [1] (setting [4]) is 40.2 min; in series [3] it was less than 9.6 min. For the same compound, in series [2], the “PANK2−/− CoA (Fold Increase): fold increase in Coenzyme A (CoA) levels relative to controls” value was 1.48 Fold Increase.
The corresponding values for `CC(C)(C)C(=O)OCO[P@@]1(=O)OCC(C)(C)[C@H](C(=O)NCCC(=O)OCC2CCC(=O)N2)O1` (stereo partly drawn) [Compound No. 2-113, (((2S,4R)-5,5-dimethyl-2-oxido-4-((3-oxo-3-((5-oxopyrrolidin-2-yl)methoxy)propyl)carbamoyl)-1,3,2-dioxaphosphinan-2-yl)oxy)methyl pivalate] are 33.6 min, less than 9.6 min and 7.93 Fold Increase.
In the case of `COC(=O)CCNC(=O)[C@@H]1OP(=O)(OCOC(=O)OCc2cccnc2)OCC1(C)C` (stereo partly drawn) [Compound No. 97, Methyl 3-((4R)-5,5-dimethyl-2-oxido-2-((((pyridin-3-ylmethoxy)carbonyl)oxy)methoxy)-1,3,2-dioxaphosphinane-4-carboxamido)propanoate], the half-life at 3 µM in series [1] (setting [4]) and in series [3] was less than 9.6 min each time. For the same compound, in series [2], the “PANK2−/− CoA (Fold Increase): fold increase in Coenzyme A (CoA) levels relative to controls” value is 77.04 Fold Increase.
Consider `CC(C)(C)C(=O)OCO[P@@]1(=O)OCC(C)(C)[C@H](C(=O)NCCC(=O)OCCc2ccccn2)O1` (single isomer, unassigned) [Compound No. 82], for which the half-life at 3 µM was 28.8 min in series [1] (setting [4]) and less than 9.6 min in series [3]. Besides, the “PANK2−/− CoA (Fold Increase): fold increase in Coenzyme A (CoA) levels relative to controls” value in series [2] was 99.82 Fold Increase.
For the compound `Cc1cc(COC(=O)CCNC(=O)[C@@H]2OP(=O)(OCOC(=O)C(C)(C)C)OCC2(C)C)no1` (single isomer, unassigned) [Compound No. 74], the half-life at 3 µM in series [1] (setting [4]) was 46.8 min; in series [1] (setting [5]) it was less than 9.6 min; in series [3], less than 9.6 min. The “PANK2−/− CoA (Fold Increase): fold increase in Coenzyme A (CoA) levels relative to controls” value in series [2] was 176 Fold Increase. The “t1/2, Mouse Plasma, Diastereoisomer B” value in series [3] is less than 9.6 min.
Take `COC(=O)CCNC(=O)[C@@H]1OP(=O)(OCOC(=O)c2cnccn2)OCC1(C)C` (stereo partly drawn) [compound 86, (((4R)-4-((3-methoxy-3-oxopropyl)carbamoyl)-5,5-dimethyl-2-oxido-1,3,2-dioxaphosphinan-2-yl)oxy)methyl pyrazine-2-carboxylate]: the half-life at 3 µM in series [1] (setting [4]), in series [1] (setting [5]) and in series [3] was less than 9.6 min each time. In series [2], the “PANK2−/− CoA (Fold Increase): fold increase in Coenzyme A (CoA) levels relative to controls” value stood at 2.45 Fold Increase. For the same compound, the “t1/2, Mouse Plasma, Diastereoisomer B” value in series [3] was less than 9.6 min.
For `COC(=O)CCNC(=O)[C@@H]1OP(=O)(OCCc2cccnc2)OCC1(C)C` (stereo partly drawn) [compound 61, methyl 3-((4R)-5,5-dimethyl-2-oxido-2-(2-(pyridin-3-yl)ethoxy)-1,3,2-dioxaphosphinane-4-carboxamido)propanoate], the half-life at 3 µM in series [1] (setting [4]) is more than 60 min; in series [1] (setting [5]), more than 60 min; in series [3] it was less than 9.6 min. For the same compound, the “PANK2−/− CoA (Fold Increase): fold increase in Coenzyme A (CoA) levels relative to controls” value in series [2] is 1.93 Fold Increase. Besides, the “t1/2, Mouse Plasma, Diastereoisomer B” value in series [3] is less than 9.6 min.
Consider `COC(=O)CCNC(=O)[C@@H]1OP(=O)(OCOC(=O)[C@H](CC(C)C)NC(C)=O)OCC1(C)C` (stereo partly drawn) [Compound No. 73, (((4R)-4-((3-methoxy-3-oxopropyl)carbamoyl)-5,5-dimethyl-2-oxido-1,3,2-dioxaphosphinan-2-yl)oxy)methyl acetyl-L-leucinate], for which the half-life at 3 µM in series [1] (setting [4]) is less than 13.8 min; in series [1] (setting [5]), less than 9.6 min; in series [3], less than 9.6 min. Also, in series [2], the “PANK2−/− CoA (Fold Increase): fold increase in Coenzyme A (CoA) levels relative to controls” value turned out to be 6.92 Fold Increase. The “t1/2, Mouse Plasma, Diastereoisomer B” value in series [3] was less than 9.6 min.
Consider `C[C@H](NP1(=O)OCC(C)(C)[C@H](C(=O)NCCC(=O)O)O1)C(=O)OCCc1ccccc1` (stereo partly drawn) [compound 41, 3-((4R)-5,5-dimethyl-2-oxido-2-(((S)-1-oxo-1-phenethoxypropan-2-yl)amino)-1,3,2-dioxaphosphinane-4-carboxamido)propanoic acid], for which the half-life at 3 µM in series [1] (setting [4]) was more than 60 min; in series [3], 12 min. Besides, the “PANK2−/− CoA (Fold Increase): fold increase in Coenzyme A (CoA) levels relative to controls” value in series [2] stood at 2.02 Fold Increase.
Take `C[C@H](NP1(=O)OCC(C)(C)[C@H](C(=O)NCCC(=O)OCc2cnccn2)O1)C(=O)OCCc1ccccc1` (stereo partly drawn) [compound 39, phenethyl ((4R)-5,5-dimethyl-2-oxido-4-((3-oxo-3-(pyrazin-2-ylmethoxy)propyl)carbamoyl)-1,3,2-dioxaphosphinan-2-yl)-L-alaninate]: the half-life at 3 µM is more than 60 min in series [1] (setting [4]), more than 60 min in series [1] (setting [5]) and less than 9.6 min in series [3]. Also, the “PANK2−/− CoA (Fold Increase): fold increase in Coenzyme A (CoA) levels relative to controls” value in series [2] is 2.18 Fold Increase. Moreover, the “t1/2, Mouse Plasma, Diastereoisomer B” value in series [3] is less than 9.6 min.
`CCOCCCOC(=O)CCNC(=O)[C@@H]1O[P@@](=O)(OCOC(=O)C(C)(C)C)OCC1(C)C` (single isomer, unassigned) [Compound No. 96]: the figures for the half-life at 3 µM in series [1] (setting [4]) and in series [3] were 16.8 min and less than 9.6 min, respectively. Moreover, in series [2], the “PANK2−/− CoA (Fold Increase): fold increase in Coenzyme A (CoA) levels relative to controls” value is recorded as 29.43 Fold Increase.
In the case of `CC(C)(C)C(=O)OCO[P@@]1(=O)OCC(C)(C)[C@H](C(=O)NCCC(=O)OC2CCN(Cc3ccccc3)C2)O1` (stereo partly drawn) [Compound No. 93, (((2S,4R)-4-((3-((1-benzylpyrrolidin-3-yl)oxy)-3-oxopropyl)carbamoyl)-5,5-dimethyl-2-oxido-1,3,2-dioxaphosphinan-2-yl)oxy)methyl pivalate], the half-life at 3 µM was more than 60 min in series [1] (setting [4]) and less than 9.6 min in series [3]. Further, the “PANK2−/− CoA (Fold Increase): fold increase in Coenzyme A (CoA) levels relative to controls” value in series [2] is 206.8 Fold Increase.
For the compound `COC(=O)CCNC(=O)[C@@H]1OP(=O)(N[C@H](C)C(=O)OCc2cccnc2)OCC1(C)C` (stereo partly drawn) [compound 28, methyl 3-((4R)-5,5-dimethyl-2-oxido-2-(((R)-1-oxo-1-(pyridin-3-ylmethoxy)propan-2-yl)amino)-1,3,2-dioxaphosphinane-4-carboxamido)propanoate], the figures for the half-life at 3 µM in series [1] (setting [4]), in series [1] (setting [5]) and in series [3] were more than 60 min, 39 min and less than 9.6 min, respectively. For the same compound, the “PANK2−/− CoA (Fold Increase): fold increase in Coenzyme A (CoA) levels relative to controls” value in series [2] is 0.87 Fold Increase. The “t1/2, Mouse Plasma, Diastereoisomer B” value in series [3] was less than 9.6 min.
For `CC(C)(C)C(=O)OCO[P@@]1(=O)OCC(C)(C)[C@H](C(=O)NCCC(=O)OC2CCNC2)O1` (stereo partly drawn) [Compound No. 92, (((2S,4R)-5,5-dimethyl-2-oxido-4-((3-oxo-3-(pyrrolidin-3-yloxy)propyl)carbamoyl)-1,3,2-dioxaphosphinan-2-yl)oxy)methyl pivalate], the half-life at 3 µM was 27 min in series [1] (setting [4]) and less than 9.6 min in series [3]. Also, the “PANK2−/− CoA (Fold Increase): fold increase in Coenzyme A (CoA) levels relative to controls” value in series [2] came to 5.13 Fold Increase.
Consider `COC(=O)CCNC(=O)[C@@H]1OP(=O)(OCOC(=O)C2(C(N)=O)CC2)OCC1(C)C` (stereo partly drawn) [Compound No. 83, (((4R)-4-((3-methoxy-3-oxopropyl)carbamoyl)-5,5-dimethyl-2-oxido-1,3,2-dioxaphosphinan-2-yl)oxy)methyl 1-carbamoylcyclopropane-1-carboxylate], for which the half-life at 3 µM in series [1] (setting [4]) was more than 60 min; in series [1] (setting [5]), less than 9.6 min; in series [3] it was less than 9.6 min. In addition, the “PANK2−/− CoA (Fold Increase): fold increase in Coenzyme A (CoA) levels relative to controls” value in series [2] is recorded as 12.02 Fold Increase. In addition, the “t1/2, Mouse Plasma, Diastereoisomer B” value in series [3] is less than 9.6 min.
As for `COC(=O)CCNC(=O)[C@@H]1OP(=O)(N[C@@H](Cc2cccnc2)C(=O)OCc2ccccc2)OCC1(C)C` (stereo partly drawn) [compound 30, (2S)-benzyl 2-(((4R)-4-((3-methoxy-3-oxopropyl)carbamoyl)-5,5-dimethyl-2-oxido-1,3,2-dioxaphosphinan-2-yl)amino)-3-(pyridin-3-yl)propanoate], the half-life at 3 µM in series [1] (setting [4]) was 49.8 min; in series [1] (setting [5]), more than 60 min; in series [3], less than 9.6 min. The “PANK2−/− CoA (Fold Increase): fold increase in Coenzyme A (CoA) levels relative to controls” value in series [2] amounted to 0.93 Fold Increase. Moreover, the “t1/2, Mouse Plasma, Diastereoisomer B” value in series [3] is less than 9.6 min.
